The data set relates to Artemia franciscana. Nature of the data set: Toxicity against Artemia franciscana nauplii larvae. To be noted: in vivo. In kind it is organism-based.

Take `CN1C(=O)N[C@@]2(O)[C@@H]3NC(=O)c4ccc(Br)n4[C@@H]3C[C@@]12O`: the LC50 was found to be 220 ppm.

Source of the values: ChEMBL document CHEMBL1159203, “Agelastatins C and D, new pentacyclic bromopyrroles from the sponge Cymbastela sp., and potent arthropod toxicity of (-)-agelastatin A” (J Nat Prod, 1998).
